The test system of assay [1] is OSA. Briefly: Acetazolamide effect on loop gain and OSA severity. Further details: species or system human. Particulars: in vivo. From the text: Residual events after anatomical interventions can arise as an effect of elevated loop gain. […] Acetazolamide is a respiratory stimulant used in healthy adults at high-altitude (where it augments and stabilizes respiration) and has additionally been administered safely long-term for glaucoma and heart failure.

Assay [2] concerns OSA. As to conditions: agents administered separately (N=9); cited from earlier work.

With `CC(=O)Nc1nnc(S(N)(=O)=O)s1` [acetazolamide], in the assay with OSA [1], the “reduction of OSA severity (AHI)” value was approximately 50% and the “reduction of loop gain” value was approximately 50%. In the case of `CNCC[C@@H](Oc1ccccc1C)c1ccccc1` [atomoxetine, Atomoxetine], the “effect on OSA severity, agents administered separately” value in the assay with OSA [2] is on record as “minimal effect”. Regarding `CCN(CC)CC#CCOC(=O)C(O)(c1ccccc1)C1CCCCC1` (stereo not shown) [oxybutynin], the “effect on OSA severity, agents administered separately” value in the assay on OSA [2] is given as “minimal effect”.

The record behind these values is patent publication US20260083709A1, “COMBINATION PHARMACOLOGICAL INTERVENTIONS FOR MULTIPLE MECHANISMS OF OBSTRUCTIVE SLEEP APNEA” (APNIMED, INC.(DELAWARE), priority 2019, published 2026).
